Assays:
[1] = test system: rat model of endotoxin induced uveitis; assay: Rat model of endotoxin-induced uveitis (EIU), topical or intravitreal treatment; format: in vivo, female Lewis rats
Description: An in vivo study was conducted to assess the efficacy of intravitreal administration of compound I-22 in a rat model of endotoxin induced uveitis, one of the most appropriate models for the study of NIU (Smith et al., 1998) (Toxikon Study 16-04078-N1). Ocular inflammation was induced in female Lewis rats (n=10/group) by a single foot pad injection of LPS (100 μL) (Herbort et al., 1988, Graefe's Arch Clin Exp Ophthalmol. 226:553-558). Compound I-22 (5 mg/mL) was administered intravitreally into each eye (25 μg/eye), or topically to both eyes at 1, 3, 7, 10, and 17 hours post-LPS injection, within one hour of LPS administration. Balanced salt solution (BSS) served as a vehicle control. Retinal exams were performed prior to study start and six and 24 hours following LPS administration and scored using a Combined Draize and McDonald Shadduck scoring system, based on assessments of: retinal vasculopathy and retinal hemorrhage, exudate, and detachment.
Endotoxin-induced uveitis was created by a single injection of lipopolysaccharide (LPS; 100 μL) into one hind footpad. Ten (10) female Lewis rats per group received control (balanced salt solution, BSS) or test article (compound I-22) topically to both eyes at 1, 3, 7, 10, and 17 hours post-LPS injection. At each dosing time point, two drops (5 μL each, separated by approximately two minutes, for a total of 10 μL/eye/dose) were instilled into each eye of the animals. Ten female Lewis rats per group received control (BSS) or compound I-22 by a single intravitreal injection (IVT) in each eye at one hour post-LPS injection. Each eye received 5 μL of vehicle or test article.
Animals were anesthetized with isoflurane 1-3.5% for ophthalmic examinations. Both eyes of each animal were evaluated pre-dose using slit-lamp biomicroscopy, and an indirect ophthalmoscope or a surgical microscope, according to the Combined Draize and McDonald-Shadduck Scoring System, and the Ocular Posterior Segment Scoring Scale. All pupils were dilated with 1% tropicamide ophthalmic solution before ocular examination. Only rats showing no signs of eye irritation, ocular defects or preexisting corneal injury were used in the study.
Ophthalmic examinations were performed on both eyes of each animal approximately six and 24 hours following LPS administration, using slit-lamp biomicroscopy and a surgical microscope or via indirect ophthalmoscopy. Pupils were dilated with 1% Tropicamide Ophthalmic Solution before ophthalmic examinations.
Quantitative, continuous data from this study were analyzed using one-way ANOVA. Alternative or additional statistical methods were used as necessary.
In the same study, the efficacy of compound 1-5 was compared to that of compound 1-22. Compound 1-5 was topically administered topically to the eye at hours 1, 3, 7, 10, and 17, after LPS induction, or by a single intravitreal (IVT) injection one hour after LPS induction (n=10 per group), as was compound I-22. Ocular exams were performed 6 and 24 hours after LPS injection. Anterior segments were scored using a combined Draize and McDonald-Shadduck scoring system, and posterior segments were scored using 0 to 1 (vitreous, optic disc, retinal vasculature) and 0 to 4 (retinal and choroidal hemorrhage, exudation, and detachment) scales. Statistical significance from vehicle control was determined by ANOVA, followed by Tukey's post hoc test.

Dry Eye Disease (DED) = assay: Phase 2b clinical study of I-5 Ophthalmic Solution (0.25% and 0.1%) vs vehicle in subjects with dry eye disease; format: in vivo, human; conditions: for Reason for Study Withdrawal: Adverse Events / Study Completion: Discontinued: N = 100
From the text: Objectives: • To evaluate the efficacy of I-5 Ophthalmic Solutions (0.25% and 0.1%) on baseline to weeks 2, 4, 8, and 12 change scores for sign and symptom endpoints of dry eye disease. • To evaluate effect sizes for efficacy endpoints of I-5 Ophthalmic Solutions (0.25% and 0.1%) vs vehicle for the treatment of the signs and symptoms of dry eye disease to confirm the endpoint selection and sample size for Phase 3 studies. • To evaluate the safety and tolerability of I-5 Ophthalmic Solutions (0.25% and 0.1%) to vehicle for the treatment of the signs and symptoms of dry eye disease.
Treatment: During the 12-week (84±3 days) treatment period, I-5 Ophthalmic Solution at concentrations of 0.1%, 0.25%, or vehicle ophthalmic solution was administered QID by bilateral topical ocular dosing. Subjects were randomized to one of three treatment groups (1:1:1) to receive study drug after the Post-CAE® assessments at Visit 2.
Summary of Visit Schedule: Six visits over the course of approximately 14 weeks • Visit 1=Day −14±2, CAE® Screening • Visit 2=Day 1, CAE® Confirmation/Baseline • Visit 3=Day 15±2, 2-Week Follow-Up • Visit 4=Day 29±2, 4-Week Follow-Up • Visit 5=Day 57±3, 8-Week Follow-Up • Visit 6=Day 85±3, 12-Week CAE® Follow-Up & Study Exit
Note: a subject could not have an Ocular Discomfort score of 4 at time=0); • 12 Had at least one eye, the same eye, satisfy all criteria for 6, 7, 8, 9, 10, and 11 above.
Safety Measures: • Visual acuity • Slit-lamp evaluation • Adverse event query • Intraocular Pressure (IOP) • Dilated fundoscopy
Efficacy Analysis • Evaluated baseline to weeks 2, 4, 8 and 12 change scores with I-5 on DED sign and symptom endpoints (both pre-CAE and CAE endpoints). Each endpoint was analyzed at a two-sided alpha level of 0.05, and the overall type I error was not controlled for in this investigative study. • Evaluated effect size of baseline to weeks 2, 4, 8 and 12 change scores of I-5 vs vehicle on DED sign and symptom endpoints (both pre-CAE and CAE endpoints) to confirm the endpoint selection for primary outcome parameters and sample size for Phase 3 studies with I-5. • Sub-group analyses on effect size of baseline to weeks 2, 4, 8 and 12 change scores of I-5 vs vehicle on DED sign and symptom endpoints (both pre-CAE and CAE endpoints) [Subgroups were prospectively detailed in the Statistical Analysis Plan (SAP)].

[2] = test system: dextran sulfate sodium (DSS)-induced acute ulcerative colitis (UC); assay: 7-Day DSS-induced acute ulcerative colitis model; format: in vivo, female Swiss Webster mice; conditions: vs PO vehicle
[3] = intravitreal administration, vs vehicles
[4] = 0.25% group, majority (>50-100%) of effect vs vehicle at first study endpoint (Week 2 or 4)
[5] = 200 mg/kg PO BID, Days −3 through 6

For CC(C)(O)c1nc2ccc(Cl)cc2cc1N [Compound I-5], the ocular exam scores ([1]; IVT, vs vehicle) was “significantly improved”, the Total ocular inflammation [1, 3] was “lower” and the anterior chamber inflammation [1, 3] was “lower”. For the same compound, the retina-choroid inflammation [1, 3] was “lower”, the “signs of inflammation in the rat EIU model” value ([1]; overall) was “reduced” and the “response in the EIU model” value ([1]; overall, I-22 compared with I-5) was “positive response”. The ocular exam scores ([1]; topical (TO), 6 hours and 24 hours, vs vehicle) was “significantly improved”, the “Total ocular inflammation score” value ([1]; topical (TO), vs vehicle) was “lower” and the “anterior chamber inflammation score” value ([1]; topical (TO), vs vehicle) was “lower”. The retina-choroid inflammation score ([1]; topical (TO), vs vehicle) was “lower”, the “Reason for Study Withdrawal: Adverse Events” value (Dry Eye Disease (DED); 0.1% QID) was 2 (2.0%) and the “Study Completion: Discontinued” value (Dry Eye Disease (DED); 0.1% QID) was 3 (3.0%). For the same compound, the “effects at later time points” value (Dry Eye Disease (DED); 0.1%, clearest with signs, especially ocular staining) was “Matched Higher Dose Effects at Later Time Points”, the “Reason for Study Withdrawal: Adverse Events” value (Dry Eye Disease (DED); 0.25% QID) was 10 (10.0%) and the “Study Completion: Discontinued” value (Dry Eye Disease (DED); 0.25% QID) was 12 (12.0%). The “early onset of effect, sign endpoints (Lissamine green total score, fluorescein total score, tear osmolarity positive; TFBUT negative)” value (Dry Eye Disease (DED); [4]) was “Positive early onset for 3 out of 4 sign endpoints”, the “early onset of effect, symptom endpoints (ODS, OD4SQ, OSDI positive; SANDE negative)” value (Dry Eye Disease (DED); [4]) was “Positive early onset for 3 out of 4 symptom endpoints” and the “Fluorescein Staining: Central (0-4); Dose Trend?” value (Dry Eye Disease (DED); ITT, observed data only) was “✓”. For the same compound, the “Fluorescein Staining: Central (0-4); Drug Trend?” value (Dry Eye Disease (DED); ITT, observed data only) was “✓”, the “Fluorescein Staining: Conjunctival Sum Score (Nasal and Temporal) (0-8; Σ 2×); Dose Trend?” value (Dry Eye Disease (DED); ITT, observed data only) was “✓” and the “Fluorescein Staining: Conjunctival Sum Score (Nasal and Temporal) (0-8; Σ 2×); Drug Trend?” value (Dry Eye Disease (DED); ITT, observed data only) was “✓”. The “Fluorescein Staining: Corneal Sum Score (Inferior, Superior, and Central) (0-12; Σ 3×); Drug Trend?” value (Dry Eye Disease (DED); ITT, observed data only) was “✓”, the “Fluorescein Staining: Inferior (0-4); Drug Trend?” value (Dry Eye Disease (DED); ITT, observed data only) was “✓” and the “Fluorescein Staining: Nasal (0-4); Dose Trend?” value (Dry Eye Disease (DED); ITT, observed data only) was “✓”. For the same compound, the “Fluorescein Staining: Nasal (0-4); Drug Trend?” value (Dry Eye Disease (DED); ITT, observed data only) was “✓”, the “Fluorescein Staining: Temporal (0-4); Dose Trend?” value (Dry Eye Disease (DED); ITT, observed data only) was “✓” and the “Fluorescein Staining: Temporal (0-4); Drug Trend?” value (Dry Eye Disease (DED); ITT, observed data only) was “✓”. The “Fluorescein Staining: Total Score (all five regions) (0-20; Σ 5×); Drug Trend?” value (Dry Eye Disease (DED); ITT, observed data only) was “✓”, the “OD & 4-Symptom Questionnaire: Burning (0-5); Drug Trend?” value (Dry Eye Disease (DED); ITT, observed data only) was “✓” and the “OD & 4-Symptom Questionnaire: Dryness (0-5); Dose Trend?” value (Dry Eye Disease (DED); ITT, observed data only) was “✓”. The “OD & 4-Symptom Questionnaire: Dryness (0-5); Drug Trend?” value (Dry Eye Disease (DED); ITT, observed data only) was “✓”, the “OD & 4-Symptom Questionnaire: Grittiness (0-5); Dose Trend?” value (Dry Eye Disease (DED); ITT, observed data only) was “✓” and the “OD & 4-Symptom Questionnaire: Grittiness (0-5); Drug Trend?” value (Dry Eye Disease (DED); ITT, observed data only) was “✓”. The “OD & 4-Symptom Questionnaire: Overall Ocular Discomfort (0-5); Dose Trend?” value (Dry Eye Disease (DED); ITT, observed data only) was “✓”, the “OD & 4-Symptom Questionnaire: Overall Ocular Discomfort (0-5); Drug Trend?” value (Dry Eye Disease (DED); ITT, observed data only) was “✓” and the “OD & 4-Symptom Questionnaire: Stinging (0-5); Dose Trend?” value (Dry Eye Disease (DED); ITT, observed data only) was “✓”. The “OD & 4-Symptom Questionnaire: Stinging (0-5); Drug Trend?” value (Dry Eye Disease (DED); ITT, observed data only) was “✓”, the “Ocular Discomfort Scale (0-4); Dose Trend?” value (Dry Eye Disease (DED); ITT, observed data only) was “✓” and the “Ocular Discomfort Scale (0-4); Drug Trend?” value (Dry Eye Disease (DED); ITT, observed data only) was “✓”. The “Ocular Surface Disease Index (OSDI) (0-100); Dose Trend?” value (Dry Eye Disease (DED); ITT, observed data only) was “✓”, the “Ocular Surface Disease Index (OSDI) (0-100); Drug Trend?” value (Dry Eye Disease (DED); ITT, observed data only) was “✓” and the “Osmolarity (mOsm/L); Drug Trend?” value (Dry Eye Disease (DED); ITT, observed data only) was “✓”. For the same compound, the “SANDE Questionnaire Frequency (0-100 mm); Drug Trend?” value (Dry Eye Disease (DED); ITT, observed data only) was “✓”, the “SANDE Questionnaire Severity (0-100 mm); Dose Trend?” value (Dry Eye Disease (DED); ITT, observed data only) was “✓” and the “SANDE Questionnaire Severity (0-100 mm); Drug Trend?” value (Dry Eye Disease (DED); ITT, observed data only) was “✓”. For the same compound, the “Schirmer’s Test (mm); Dose Trend?” value (Dry Eye Disease (DED); ITT, observed data only) was “✓”, the “Schirmer’s Test (mm); Drug Trend?” value (Dry Eye Disease (DED); ITT, observed data only) was “✓” and the “Tear Film Break-up Time (sec); Dose Trend?” value (Dry Eye Disease (DED); ITT, observed data only) was “✓”. The “Usamine Green Staining: Central (0-4); Dose Trend?” value (Dry Eye Disease (DED); ITT, observed data only) was “✓”, the “Usamine Green Staining: Central (0-4); Drug Trend?” value (Dry Eye Disease (DED); ITT, observed data only) was “✓” and the “Usamine Green Staining: Conjunctival Sum Score (Nasal and Temporal) (0-8; Σ 2×); Dose Trend?” value (Dry Eye Disease (DED); ITT, observed data only) was “✓”. For the same compound, the “Usamine Green Staining: Conjunctival Sum Score (Nasal and Temporal) (0-8; Σ 2×); Drug Trend?” value (Dry Eye Disease (DED); ITT, observed data only) was “✓”, the “Usamine Green Staining: Corneal Sum Score (Inferior, Superior, and Central) (0-12; Σ 3×); Dose Trend?” value (Dry Eye Disease (DED); ITT, observed data only) was “✓” and the “Usamine Green Staining: Corneal Sum Score (Inferior, Superior, and Central) (0-12; Σ 3×); Drug Trend?” value (Dry Eye Disease (DED); ITT, observed data only) was “✓”. The “Usamine Green Staining: Inferior (0-4); Dose Trend?” value (Dry Eye Disease (DED); ITT, observed data only) was “✓”, the “Usamine Green Staining: Inferior (0-4); Drug Trend?” value (Dry Eye Disease (DED); ITT, observed data only) was “✓” and the “Usamine Green Staining: Nasal (0-4); Dose Trend?” value (Dry Eye Disease (DED); ITT, observed data only) was “✓”. The “Usamine Green Staining: Nasal (0-4); Drug Trend?” value (Dry Eye Disease (DED); ITT, observed data only) was “✓”, the “Usamine Green Staining: Superior (0-4); Dose Trend?” value (Dry Eye Disease (DED); ITT, observed data only) was “✓” and the “Usamine Green Staining: Temporal (0-4); Dose Trend?” value (Dry Eye Disease (DED); ITT, observed data only) was “✓”. The “Usamine Green Staining: Temporal (0-4); Drug Trend?” value (Dry Eye Disease (DED); ITT, observed data only) was “✓”, the “Usamine Green Staining: Total Score (all five regions) (0-20; Σ 5×); Dose Trend?” value (Dry Eye Disease (DED); ITT, observed data only) was “✓” and the “Usamine Green Staining: Total Score (all five regions) (0-20; Σ 5×); Drug Trend?” value (Dry Eye Disease (DED); ITT, observed data only) was “✓”. For the same compound, the “Dose Response” value (Dry Eye Disease (DED); between 0.1% and 0.25% dose strengths) was “Demonstrated”, the Body weights ([2]; 200 mg/kg PO BID (Groups 5, 6, 7, 8, 9, and 10)) was “did not differ significantly” and the “proximal colon edema, reduction” value [2, 5] was 63%. The “proximal colon erosion, reduction” value [2, 5] was 73%.

Reference: patent US11583529B2, “Treatment of inflammatory disorders” (Aldeyra Therapeutics, Inc., priority 2017, dated 2023)
